Laboratory results taken from patent US10669268B2, “Bicyclic derivatives” (Hoffmann-La Roche Inc., priority 2012, dated 2020).

Target: ATX (human His-tagged) (Homo sapiens (Human), UniProt Q13822)
Assay: Human ATX enzyme inhibition assay (fluorescence quenching, MR121 substrate)
Format: biochemical
Settings: 30 nM ATX, 1 μM MR121 substrate, 30° C., pH 8.0
Summary of the method: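 Tris-HCl buffer at pH 8.0 contained 140 mM NaCl, 5 mM KCl, 1 mM each CaCl2 and MgCl2, and 0.01% Triton X-100. The MR121 substrate (1 μM final) was incubated with enzyme for 15 min at 30 °C, and activity was read by fluorescence quenching.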

| IC50 [nM] | Compound |
| --- | --- |
| 6 | COc1cc(/C=C/C(=O)N2C[C@@H]3CN(C(=O)c4ccc5[nH]nnc5c4)C[C@H]3C2)cc(OC(F)(F)F)c1 [Example 15.51, (E)-1-[(3aR,6aR)-5-(1H-benzotriazole-5-carbonyl)-hexahydro-pyrrolo[3,4-c]pyrrol-2-yl]-3-(3-methoxy-5-trifluoromethoxy-phenyl)-prop-2-ene-1-one] |
| 5 | O=C(/C=C/c1ccc(C(F)(F)F)cc1)N1C[C@@H]2CN(C(=O)c3ccc4[nH]nnc4c3)C[C@H]2C1 [Example 15.58] |
| 10 | O=C(CCc1ccc(OC(F)(F)F)cc1)N1C[C@H]2CN(C(=O)c3ccc4[nH]nnc4c3)C[C@@H]2C1 [Example 19.12, 1-[(3aS,6aS)-5-(1H-benzotriazole-5-carbonyl)-hexahydro-pyrrolo[3,4-c]pyrrol-2-yl]-3-(4-trifluoromethoxy-phenyl)-propan-1-one] |
| 7 | O=C(/C=C/N1C[C@@H]2CN(C(=O)[C@@H]3CCc4[nH]nnc4C3)C[C@H]2C1)c1ccc(OC(F)(F)F)cc1 [Example 15.89] |
| 12 | O=C(COc1ccc(OC(F)(F)F)cc1Br)N1C[C@@H]2CN(C(=O)c3ccc4[nH]nnc4c3)C[C@H]2C1 [Example 19.01, 1-[(3aS,6aS)-5-(1H-benzotriazole-5-carbonyl)-hexahydro-pyrrolo[3,4-c]pyrrol-2-yl]-2-(2-bromo-4-trifluoromethoxy-phenoxy)-ethanone] |
| 6 | Cc1cc(OCC(=O)N2C[C@@H]3CN(C(=O)[C@@H]4CCc5[nH]nnc5C4)C[C@H]3C2)c(C(C)C)cc1C#N [Example 19.27, 4-[2-[(3aS,6aS)-5-[(5R)-4,5,6,7-tetrahydro-1H-benzotriazole-5-carbonyl]-1,3,3a,4,6,6a-hexahydropyrrolo[3,4-c]pyrrol-2-yl]-2-oxoethoxy]-2-methyl-5-propan-2-ylbenzonitrile] |
| 362 | O=C(CCc1cc(F)cc(C(F)(F)F)c1)N1C[C@@H]2CN(C(=O)c3ccc4[nH]nnc4c3)C[C@@H]2C1 [Example 15.03] |
| 31 | N#Cc1ccc(/C=C/C(=O)N2C[C@@H]3CN(C(=O)c4ccc5[nH]nnc5c4)C[C@H]3C2)c(F)c1 [Example 15.35] |
| 3 | O=C(/C=C/c1ccc(OC(F)F)cc1)N1C[C@@H]2CN(C(=O)c3ccc4[nH]nnc4c3)C[C@H]2C1 [Example 15.36, (E)-1-((3aR,6aR)-5-(1H-benzo[d][1,2,3]triazole-5-carbonyl)hexahydro-pyrrolo[3,4-c]pyrrol-2(1H)-yl)-3-(4-(difluoromethoxy)phenyl)-prop-2-en-1-one] |
| 5 | O=C(/C=C/c1ccc(OC(F)(F)F)cc1F)N1C[C@@H]2CN(C(=O)c3ccc4[nH]nnc4c3)C[C@H]2C1 [Example 15.40, (E)-1-((3aR,6aR)-5-(1H-benzo[d][1,2,3]triazole-5-carbonyl)hexahydro-pyrrolo[3,4-c]pyrrol-2(1H)-yl)-3-(2-fluoro-4-(trifluoromethoxy)phenyl)-prop-2-en-1-one] |
| 19 | O=C(/C=C/c1ccc(OC(F)F)cc1)N1C[C@H]2CCN(C(=O)c3ccc4[nH]nnc4c3)C[C@@H]2C1 (single isomer, unassigned) [Example 15.32] |
| 34 | O=C(/C=C/c1ccc(OC(F)(F)F)cc1)N1C[C@H]2CCN(C(=O)c3ccc4[nH]nnc4c3)CC[C@H]2C1 [Example 15.10] |
| 15 | CC(C)Oc1cc(C(=O)N2C[C@@H]3CN(C(=O)[C@@H]4CCc5[nH]nnc5C4)C[C@H]3C2)nc2ccccc12 [Example 19.25, [(3aS,6aS)-5-[(5R)-4,5,6,7-tetrahydro-1H-benzotriazole-5-carbonyl]-1,3,3a,4,6,6a-hexahydropyrrolo[3,4-c]pyrrol-2-yl]-(4-propan-2-yloxyquinolin-2-yl)methanone] |
| 93 | O=C(/C=C/c1ccc(OC(F)(F)F)cc1)N1CC[C@H]2CN(C(=O)c3ccc4[nH]nnc4c3)C[C@H]2C1 [Example 15.37] |
| 14 | O=C(c1cnc(OCC(F)(F)F)c(C(F)(F)F)c1)N1C[C@@H]2CN(C(=O)c3ccc4[nH]nnc4c3)C[C@H]2C1 [Example 19.43, ((3aS,6aS)-5-(1H-benzo[d][1,2,3]triazole-5-carbonyl)hexahydropyrrolo[3,4-c]pyrrol-2(1H)-yl)(6-(2,2,2-trifluoroethoxy)-5-(trifluoromethyl)pyridin-3-yl)methanone] |
| 12 | O=C(/C=C/c1ccc(OC(F)(F)F)cc1)N1C[C@H]2CCN(C(=O)c3ccc4[nH]nnc4c3)C[C@@H]2C1 [Example 15.74] |
| 32 | N#Cc1ccc(/C=C/C(=O)N2C[C@@H]3CN(C(=O)c4ccc5[nH]nnc5c4)C[C@H]3C2)cc1 [Example 15.23] |

The remaining lines, values behind:

| Compound | IC50 [nM] |
| --- | --- |
| CC(C)c1cc(C#N)ccc1COC(=O)N1C[C@@H]2CN(C(=O)c3ccc4[nH]nnc4c3)C[C@H]2C1 [Example 4.52, (3aS,6aS)-5-(1H-benzotriazole-5-carbonyl)-hexahydro-pyrrolo[3,4-c]pyrrole-2-carboxylic acid 4-cyano-2-isopropyl-benzyl ester] | 10 |
| O=C(OCc1cc(Cl)cc(Cl)c1)N1CC[C@@H]2CN(C(=O)c3ccc4[nH]nnc4c3)C[C@H]2C1 (relative stereo) [Example 1.09, trans-3,5-dichlorobenzyl 2-(1H-benzo[d][1,2,3]triazole-5-carbonyl)hexahydro-1H-pyrrolo[3,4-c]pyridine-5(6H)-carboxylate] | 9 |
| O=C(/C=C/c1ccc(OC(F)(F)F)cc1)N1CC[C@@H]2CN(C(=O)N3CCc4ncccc4C3)C[C@@H]2CC1 [Example 8.06] | 192 |
| O=C(/C=C/c1ccc(OC(F)(F)F)cc1)N1CC[C@@H]2CN(C(=O)N3CCn4nc(C(F)(F)F)nc4C3)C[C@@H]2CC1 [Example 8.07] | 1840 |
| O=C(OCc1cc(Cl)cc(Cl)c1)N1CC[C@@H]2CN(C(=O)c3ccc4[nH]c(=O)oc4c3)C[C@H]2C1 (relative stereo) [Example 2, trans-3,5-Dichlorobenzyl 2-(2-oxo-2,3-dihydrobenzo[d]oxazole-6-carbonyl)hexahydro-1H-pyrrolo[3,4-c]pyridine-5(6H)-carboxylate] | 10 |
| O=C(OCc1ccc(OC(F)(F)F)cc1F)N1C[C@@H]2CN(C(=O)c3ccc4[nH]nnc4c3)C[C@H]2C1 [Example 4.49, (3aS,6aS)-5-(1H-benzotriazole-5-carbonyl)-hexahydro-pyrrolo[3,4-c]pyrrole-2-carboxylic acid 2-fluoro-4-trifluoromethoxy-benzyl ester] | 3 |
| O=C(COc1cc(Cl)ccc1C(F)(F)F)N1CC[C@@H]2CN(C(=O)c3ccc4[nH]nnc4c3)C[C@@H]2CC1 [Example 1.41, 1-((3aR,8aS)-2-(1H-benzo[d][1,2,3]triazole-5-carbonyl)octahydropyrrolo[3,4-d]azepin-6(7H)-yl)-2-(5-chloro-2-(trifluoromethyl)phenoxy)ethanone] | 2 |
| O=C(OCc1ccc(C(F)(F)F)cc1)N1C[C@@H]2CN(C(=O)[C@@H]3CCc4[nH]nnc4C3)C[C@H]2C1 [Example 4.59, (3aS,6aS)-5-((R)-4,5,6,7-tetrahydro-1H-benzotriazole-5-carbonyl)-hexahydro-pyrrolo[3,4-c]pyrrole-2-carboxylic acid 4-trifluoromethyl-benzyl ester] | 9 |
| O=C(OCc1ccc(OCC(F)(F)F)c(F)c1)N1CC[C@@H]2CN(C(=O)c3ccc4[nH]nnc4c3)C[C@@H]2CC1 [Example 1.46, (3aS,8aR)-2-(1H-benzotriazole-5-carbonyl)-octahydro-pyrrolo[3,4-d]azepine-6-carboxylic acid 3-fluoro-4-(2,2,2-trifluoro-ethoxy)-benzyl ester] | 2 |
| O=C(OCC1C2CC3CC(C2)CC1C3)N1C[C@@H]2CN(C(=O)c3ccc4[nH]nnc4c3)C[C@@H]2C1 (stereo partly drawn) [Example 4.14, (3aS,6aR)-5-(1H-benzotriazole-5-carbonyl)-hexahydro-pyrrolo[3,4-c]pyrrole-2-carboxylic acid adamantan-2-ylmethyl ester] | 4190 |
| O=C(OCc1ccc(OC(F)(F)F)cc1)N1C[C@@H]2CN(C(=O)c3cc(F)c4[nH]nnc4c3)C[C@H]2C1 [Example 1.53, (3aS,6aS)-5-(7-fluoro-1H-benzotriazole-5-carbonyl)-hexahydro-pyrrolo[3,4-c]pyrrole-2-carboxylic acid 4-trifluoromethoxy-benzyl ester] | 52 |
| N#Cc1ccc(COC(=O)N2C[C@@H]3CN(C(=O)c4ccc5[nH]nnc5c4)C[C@H]3C2)c(OC2CCC2)c1 [Example 4.64, (3aS,6aS)-5-(1H-benzotriazole-5-carbonyl)-hexahydro-pyrrolo[3,4-c]pyrrole-2-carboxylic acid 4-cyano-2-cyclobutoxy-benzyl ester] | 19 |
| O=C1N[C@@H]2CCN(C(=O)N3C[C@H]4CCN(C(=O)/C=C/c5ccc(OC(F)(F)F)cc5)CC[C@H]4C3)C[C@H]2O1 [Example 8.05] | 149 |
| O=C(OCc1ccc(OC(F)F)c(F)c1)N1C[C@@H]2CN(C(=O)c3ccc4[nH]nnc4c3)C[C@H]2C1 [Example 4.39, (3aS,6aS)-5-(1H-benzotriazole-5-carbonyl)-hexahydro-pyrrolo[3,4-c]pyrrole-2-carboxylic acid 4-difluoromethoxy-3-fluoro-benzyl ester] | 6 |
| O=C(CCc1ccc(OC(F)(F)F)cc1)N1C[C@@H]2CN(C(=O)c3ccc4[nH]nnc4n3)C[C@H]2C1 [Example 1.50, 1-[(3aR,6aR)-5-(1H-triazolo[4,5-b]pyridine-5-carbonyl)-1,3,3a,4,6,6a-hexahydropyrrolo[3,4-c]pyrrol-2-yl]-3-[4-(trifluoromethoxy)phenyl]propan-1-one] | 17 |
| O=C(OCc1cc(Cl)cc(Cl)c1)N1C[C@H]2CN(Cc3ccc4[nH]cnc4c3)C[C@H]2C1 [Example 6, (3aR,6aS)-3,5-Dichlorobenzyl 5-((1H-benzo[d]imidazol-5-yl)methyl)hexahydropyrrolo[3,4-c]pyrrole-2(1H)-carboxylate] | 10400 |
